In patent publication US20160213651A1, “PIDOTIMOD FOR USE IN THE TREATMENT OF INFLAMMATION-ASSOCIATED DISEASES” (POLICHEM S.A., priority 2013, published 2016):
Square brackets hold non-standard residues; d marks the D form. Peptide text beside a SMILES is read from it. pGlu = O=C1CC[C@@H](C(=O)O)N1; Thz = O=C(O)[C@@H]1CSCN1

Key:
NLRP12 [1] = assay: NLRP12 protein expression in Monomac6 by immunoprecipitation and immunoblotting; assay type: cell-based, human; details: Monomac6, 5 μg/ml, 36 hours, immunoblotting upon immunoprecipitation (FIG. 3)
Protocol: (§1) 1. Culture of human monocytes. Peripheral blood mononuclear cells (PBMCs) were obtained by peripheral blood (freshly drawn or buffy coats). Monocytes were then derived from PBMCs by positive selection using anti-CD14 paramagnetic beads (Miltenyi Biotec) as described (Marini et al., 2008). Upon purification, cells were shortly cultured (from 24 to 72 hours) in complete culture medium (RPMI 1640 complemented with 10% of fetal bovine serum certified low endotoxin).
(§2) 2. Cell treatment with Pidotimod. PBMCs, purified primary human monocytes or MonoMac 6were treated with Pidotimod, at concentrations ranging from 1 to 25 μg/mL and, for different times. In some experiments, after 6 to 48 hours from the beginning of Pidotimod treatment, cells were washed and cultured for 6-24 hours in the presence and absence of TLR 1-9 optimal ligands (Human TLR1-9 Agonist kit, Invivogen).
(§3) 4. Immunoblot and immunoprecipitation assays. Cell lysates were prepared in lysis buffer containing a protease inhibitor cocktail (Roche). […] To detect the presence of cytoplasmic NLRP12, a first incubation with the goat polyclonal antibody to NLRP12 (Santa Cruz Biotechnology) was followed by the addiction of donkey-anti-goat-HRP secondary antibody. […]

primary human monocytes = assay: mRNA of inflammatory mediators in primary human monocytes treated with TLR agonists; assay type: cell-based
Protocol: as §1, §2
5. Transcription array. The Pidotimod ability to reduce the inflammation induced by potent danger signals as LPS or other PAMPs was highlighted by evaluating the level of mRNA specific for effector inflammatory molecules. To this scope total RNA was extracted using the semiautomated extraction system NucliSens Easymag (Biomerieux). […] Data obtained were analysed using the 2^−ΔΔCt method using Relative Quantification Study software (Applied Biosystems). […]

[2] = test system: PBMCs and/or purified monocytes; assay: ELISA quantification of inflammatory molecules in cell supernatants after TLR stimulation; assay type: cell-based, human
Protocol: as §1, §2
6. ELISA for the quantification of proinflammatory molecules induced by TLR stimulation. The increase of cytokine synthesis is the signal of cellular response to TLR stimulation. Pidotimod disciplines the extent of inflammation by upregulating the expression of NLRP12 which reduces the amplification of inflammatory signals triggered by TLR activation. […] The presence of IL-6, IL-8, TNF-α, MCP-1 and IL-1β was quantified in the cultural medium through ELISA assays (Endogen).

NLRP12 [3] = assay: NLRP12 mRNA expression in primary monocytes from peripheral blood of healthy donors; assay type: cell-based, human; details: primary monocytes from 8 different subjects, 25 and 5 μg/ml (FIG. 2)
Protocol: as §1, §2
(§4) 3. Evaluation of gene expression involved in Pidotimod activity. Upon stimulation, cells were harvested and total RNA was extracted using the RNAeasy mini kit (Qiagen). RNA was then retro-transcribed and subjected to amplification. Real-time PCR was performed using the “Human “RT2 Profiler PCR microarray kit” according to the manufacturer's protocol (SABbiosciences, Qiagen). […]
(§5) 5. […] Data obtained were analysed using the 2^−ΔΔCt method using Relative Quantification Study software (Applied Biosystems). […]

NLRP12 [4] = assay: NLRP12 mRNA expression in MonoMac 6 cells (transcriptional array, quantitative Real-Time PCR); assay type: cell-based, human
Protocol: as §1, §2, §4, §5

NLRP12 [5] = assay: NLRP12 downregulation induced in monocytes by TLR stimulation, Pidotimod pretreatment; assay type: cell-based, human; details: monocytes pretreated with Pidotimod
Protocol: as §1, §2, §3, §5

O=C1CC[C@@H](C(=O)N2CSC[C@H]2C(=O)O)N1 [Pidotimod, (4R)-3-(5-oxo-L-prolyl)-1,3-thiazolidine-4-carboxylic acid] ([pGlu]-[Thz]-OH)
NLRP12 protein expression level vs untreated cells (NLRP12 [1]): higher amount of NLRP12 protein | IL-6, IL-8, TNF-α and IL-1β mRNA induced by TLR agonists (primary human monocytes): controls the production of these mediators at the transcriptional level | levels of specific MCP-1 (mRNA) induced by TLR agonists (primary human monocytes; 8 samples from 8 donors (FIG. 4)): consistently diminished | inflammatory molecules in cell supernatants by ELISA ([2]; purified monocytes, TLR stimulation): confirmed | inflammatory molecules by ELISA in total PBMC ([2]; total PBMC instead of purified monocytes): reproducible | NLRP12 mRNA expression vs non-treated cells (NLRP12 [3]): increase of NLRP12 mRNA expression | NLRP12 mRNA increase as compared to unstimulated cells (NLRP12 [4]; 25 μg/ml, 16 hours of treatment, gene array confirmed by Real-Time PCR): two-fold | time of peak of increase in NLRP12 expression (NLRP12 [4]; 25 and 5 μg/ml, tested 6, 16, 24, 48 hours (FIG. 1)): 24 h | NLRP12 expression at messenger level after TLR stimulation (NLRP12 [5]; representative TLR with optimal agonist (FIG. 5 left panel)): able to counteract the decrement of NLRP12 expression | NLRP12 expression at protein level after TLR stimulation (NLRP12 [5]; representative TLR with optimal agonist (FIG. 5 right panel)): able to counteract the decrement of NLRP12 expression
